Laboratory results published in patent publication US5344843A, “Cat-1 inhibitors, pharmaceutical compositions and methods of use” (Hoffman-La Roche Inc., priority 1992, dated 1994).

These molecules were tested against T1, CAT-1 (carnitine acyltransferase 1) (Rattus norvegicus, UniProt Q63704) (assay: Primary Screen--Inhibition of CAT-1 in isolated mitochondria). Conditions: not given.
T1 construct: This preparation is used as the isolated mitochondrial preparation; from tissue; host or cells: rat heart (atria removed), isolated mitochondria
T1 sequence (Q63704 1-772): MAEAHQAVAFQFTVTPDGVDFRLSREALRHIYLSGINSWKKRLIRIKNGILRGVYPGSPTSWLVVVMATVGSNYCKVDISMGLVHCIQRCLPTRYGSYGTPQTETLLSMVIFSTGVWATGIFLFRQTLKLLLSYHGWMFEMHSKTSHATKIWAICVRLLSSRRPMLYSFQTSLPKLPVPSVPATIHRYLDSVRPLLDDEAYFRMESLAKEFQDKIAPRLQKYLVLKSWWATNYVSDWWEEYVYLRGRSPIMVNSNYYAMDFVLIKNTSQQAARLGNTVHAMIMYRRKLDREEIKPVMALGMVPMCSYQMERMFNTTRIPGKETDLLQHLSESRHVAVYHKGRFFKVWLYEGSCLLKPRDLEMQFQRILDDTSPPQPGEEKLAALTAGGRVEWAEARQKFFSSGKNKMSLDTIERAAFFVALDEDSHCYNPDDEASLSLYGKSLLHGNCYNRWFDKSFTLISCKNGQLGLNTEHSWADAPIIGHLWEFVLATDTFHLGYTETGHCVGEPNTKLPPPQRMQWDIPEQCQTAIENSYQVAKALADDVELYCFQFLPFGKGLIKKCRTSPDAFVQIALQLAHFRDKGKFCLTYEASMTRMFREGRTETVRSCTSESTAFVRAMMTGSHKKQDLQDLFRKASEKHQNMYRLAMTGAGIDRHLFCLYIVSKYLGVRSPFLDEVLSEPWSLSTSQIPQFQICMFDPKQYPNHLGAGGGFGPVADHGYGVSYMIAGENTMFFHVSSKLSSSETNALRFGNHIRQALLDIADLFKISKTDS
Type: biochemical
Design: inhibition: dose or concentration left out as unconfirmed

| inhibition [%] | Compound | IC50 [nM] |
| --- | --- | --- |
|  | O=C(O)C(=O)c1ccc(OCCOc2cc3ccccc3c3ccccc23)cc1 [Example 110, alpha-oxo-4-[[2-(9-phenanthrenyloxy)ethyl]oxy]benzeneacetic acid] | 100 |
| 28 | O=C(O)C(=O)c1cc(Cl)c(OCCOc2ccc3ccccc3c2)c(Cl)c1 [Example 189, 3,5-dichloro-4-[2-(2-naphthalenyloxy)ethoxy]-alpha-oxobenzeneacetic acid (6:1) molar benzene solvate] |  |

Same assay, conditions: @ 10 μM

| inhibition at 10 µM [%] | Compound |
| --- | --- |
| 48 | CC(C)(C)c1cc(C(=O)CCCCOc2ccc(C(=O)C(=O)O)cc2)cc(C(C)(C)C)c1O [Example 266, 4-[5-[3,5-bis(1,1-dimethylethyl)-4-hydroxyphenyl]-5-oxopentyloxy]-alpha-oxobenzeneacetic acid] |

Same assay, conditions: rat heart mitochondria, reduction of palmitoyl carnitine formation by 50%; read-out: Primary Screen IC50

| IC50 [nM] | Compound |
| --- | --- |
| 140 | O=C(O)/C(=N/OCc1ccccc1)c1ccc(OCCOc2ccc3ccccc3c2)s1 [Example 315, (Z)-5-[2-(2-naphthalenyloxy)ethoxy]-alpha-[(phenylmethoxy)imino]-2-thiopheneacetic acid] |
| 700 | O=C(O)C(=O)c1ccc(OCc2cc3ccccc3o2)cc1 [Example 141, 4-[[2-benzofuranyl)methoxy]-alpha-oxobenzeneacetic acid] |
| 1800 | CCCc1c(OCCCOc2ccc(C(=O)C(=O)O)cc2)ccc(C(=O)O)c1O [Example 269, 4-[3-[4-carboxy-3-hydroxy-2-propylphenoxy)propoxy]-alpha-oxobenzeneacetic acid] |
| 80 | O=C(O)C(=O)c1ccc(SCCOc2ccc3ccccc3c2)cc1 [Example 149, 4-[[2-(2-naphthalenyloxy)ethyl]thio]-alpha-oxobenzeneacetic acid] |
| 930 | O=C(COc1ccc2ccccc2c1)Nc1ccc(C(=O)C(=O)O)cc1 [Example 153, 4-[[2-(2-naphthalenyloxy)acetyl]amino]-alpha-oxobenzeneacetic acid] |
| 100 | C=CCO/N=C(/C(=O)O)c1ccc(OCCOc2ccc3ccccc3c2)s1 [Example 312, (Z)-5-[2-(2-naphthalenyloxy)ethoxy]-alpha-[(2-propenyloxy)imino]-2-thiopheneacetic acid] |
| 200 | O=C(O)C(=O)c1ccc(OCCOc2ccc3c(c2)CCCC3)cc1 [Example 112, alpha-oxo-4-[[2-(5,6,7,8-tetrahydro-2-naphthalenyloxy)ethyl]oxy]benzeneacetic acid] |
| 1000 | O=C(O)C(=O)c1ccc(OCC(=O)C2CCCCCCC2)cc1 [Example 290, 4-[2-(cyclooctyl)-2-oxoethoxy]-alpha-oxobenzeneacetic acid] |
| 4700 | Cc1cc(OCCOc2ccc3ccccc3c2)ccc1C(=O)C(=O)O [Example 183, 2-methyl-4-[2-(2-naphthalenyloxy)ethoxy]-alpha-oxobenzeneacetic acid (4:1) hydrate] |
| 2800 | O=C(O)C(=O)c1ccc(OCCOC2CCc3ccccc3C2)cc1 (racemic) [Example 114, rac.-alpha-oxo-4-[[2-(1,2,3,4-tetrahydro-2-naphthalenyloxy)ethyl]oxy]benzeneacetic acid] |
| 730 | CC(=O)c1ccc(OCCCOc2ccc(C(=O)C(=O)O)cc2)cc1O [Example 273, 4-[3-(4-acetyl-3-hydroxyphenoxy)propoxy]-alpha-oxobenzeneacetic acid] |
| 250 | O=C(O)C(=O)c1ccc(OCCOc2cc3ccccc3cc2OCCO)cc1 [Example 118, 4-[[2-[3-(2-hydroxyethoxy)-2-naphthalenyloxy]ethyl]oxy]-alpha-oxobenzeneacetic acid] |
| 3500 | O=C(O)C(=O)c1ccc(OCCCCSc2ccc3ccccc3c2)cc1 [Example 92, 4-[[4-(2-naphthalenylthio)butyl]oxy]-alpha-oxobenzeneacetic acid] |
| 6200 | O=C(O)C(=O)c1ccc(CCCNC(=O)c2ccc3ccccc3c2)cc1 [Example 147, 4-[3-[[(2-naphthalenyl)carbonyl]amino]propyl]-alpha-oxobenzeneacetic acid] |
| 300 | O=C(O)C(=O)c1ccc(OCCOc2cc3ccccc3cc2O)cc1 [Example 121, 4-[[2-(3-hydroxy-2-naphthalenyloxy)ethyl]oxy]-alpha-oxobenzeneacetic acid] |
| 4000 | Cc1ccc(OCCOc2ccc(C(=O)C(=O)O)cc2)cc1 [Example 49, 4-[[2-(4-methylphenoxy)ethyl]oxy]-alpha-oxobenzeneacetic acid] |
| 5000 | O=C(O)C(=O)c1ccc(OCCCCCOc2ccccc2)cc1 [Example 73, alpha-oxo-4-[[(5-phenoxy)pentyl]oxy]benzeneacetic acid] |
| 10000 | O=C(O)C(=O)c1ccc(OCC(=O)N2CCN(c3ccccc3)CC2)cc1 [Example 249, 4-[2-oxo-2-(4-phenyl-1-piperazinyl)ethoxy]-alpha-oxobenzeneacetic acid] |

| IC50 [nM] | Compound |
| --- | --- |
| 3000 | O=C(O)C(=O)c1ccc(OCCCc2ccc(F)cc2)cc1 [Example 27, 4-[[3-(4-fluorophenyl)propyl]oxy]-alpha-oxobenzeneacetic acid] |
| 12000 | O=C(O)C(=O)c1ccc(OCC(=O)N2CCOCC2)cc1 [Example 255, 4-[2-(4-morpholinyl)-2-oxoethoxy]-alpha-oxobenzeneacetic acid] |
| 5000 | O=C(O)C(=O)c1ccc(OCCOc2ccc(-c3ccccc3)cc2)cc1 [Example 57, 4-[[2-[4-(1,1'-biphenyl)oxy]ethyl]oxy]-alpha-oxobenzeneacetic acid] |
| 1200 | O=C(O)C(=O)c1ccc(OCCCCCCc2cccc(OCc3ccccc3)c2OCc2ccccc2)cc1 [Example 259, 4-[6-[2,3-bis-(phenylmethoxy)phenyl]hexyloxy]-alpha-oxobenzeneacetic acid] |
| 15000 | O=C(O)C(=O)c1ccc(OCOc2ccccc2)cc1 [Example 67, alpha-oxo-4-[[(phenoxy)methyl]oxy]benzeneacetic acid] |
| 300 | O=C(O)C(=O)c1ccc(OCCOc2ccc(Cl)cc2)cc1 [Example 45, 4-[[2-(4-chlorophenoxy)ethyl]oxy]-alpha-oxobenzeneacetic acid] |
| 5500 | O=C(O)C(=O)c1ccc([S+]([O-])CCOc2ccc3ccccc3c2)cc1 (racemic) [Example 151, rac.-4-[[2-(2-naphthalenyloxy)ethyl]sulfinyl]-alpha-oxobenzeneacetic acid] |
| 2000 | COc1ccc(OCCOc2ccc(C(=O)C(=O)O)cc2)cc1 [Example 61, 4-[[2-(4-methoxyphenoxy)ethyl]oxy]-alpha-oxobenzeneacetic acid] |
| 30000 | COCCOc1ccc(C(=O)C(=O)O)cc1 [Example 97, 4-[[2-(methoxy)ethyl]oxy]-alphaoxobenzeneacetic acid] |
| 6500 | CN(C)/N=C(\C(=O)O)c1ccc(OCCOc2ccc3ccccc3c2)cc1 [Example 321, (Z)-alpha-(dimethylhydrazono)-4-[2-(2-naphthalenyloxy)ethoxy]benzeneaceticacid] |
| 600 | O=C(O)C(=O)c1ccc(OCCOc2ccccc2F)cc1 [Example 39, 4-[[2-(2-fluorophenoxy)ethyl]oxy]-alpha-oxobenzeneacetic acid] |
| 2000 | O=C(O)C(=O)c1ccc(OCCOCCOc2ccccc2)cc1 [Example 77, 4-[[2-[[2-(phenoxy)ethyl]oxy]ethyl]oxy]-alpha-oxobenzeneacetic acid] |
| 5500 | O=C(O)C(=O)c1ccc(C#CCNC(=O)c2ccc3ccccc3c2)cc1 [Example 146, 4-[3-[[(2-naphthalenyl)carbonyl]amino]-1-propynyl]-alpha-oxobenzeneacetic acid] |
| 700 | O=C(O)C(=O)c1ccc(NCCOc2ccc3ccccc3c2)cc1 [Example 168, 4-[[2-(2-naphthalenyloxy)ethyl]amino]-alpha-oxobenzeneaceticacid] |
| 8900 | COC(=O)C(=O)c1ccc(OCCOc2ccc3cc(OC(C)=O)ccc3c2)cc1 [Example 138, 4-[[2-[6-(Acetyloxy)-2-naphthalenyloxy]ethyl]oxy]-alpha-oxobenzeneacetic acid methyl ester] |
| 440 | O=C(O)C(=O)c1ccc(OCCOc2ccc3ccncc3c2)cc1 [Example 129, 4-[[2-(7-isoquinolyloxy)ethyl]oxy]-alpha-oxobenzeneacetic acid (5:2) molar hydrate] |
| 3000 | COc1ccc(OCCOc2ccc(C(=O)C(=O)O)cc2)cc1OC [Example 63, 4-[[2-(3,4-dimethoxyphenoxy)ethyl]oxy]-alpha-oxobenzeneacetic acid] |

| Compound | IC50 [nM] |
| --- | --- |
| CCC(C)(C)C(=O)Oc1cccc2ccc(OCCOc3ccc(C(=O)C(=O)OC)cc3)cc12 [Example 133, 4-[[2-[8-(2,2-dimethyl-1-oxobutoxy)-2-naphthalenyloxy]ethyl]oxy]-alpha-oxobenzeneacetic acid methyl ester] | 35000 |
| O=C(O)C(=O)c1ccc(OCCCCc2cccnc2)cc1 [Example 123, alpha-oxo-4-[4-(3-pyridinyl)butoxy]benzeneacetic acid] | 1500 |
| O=C(O)C(=O)c1ccc(OCCCCc2ccncc2)cc1 [Example 125, alpha-oxo-4-[4-(4-pyridinyl)butoxy]benzeneacetic acid] | 2000 |
